Reference: patent US9328128B2 (priority 2010, dated 2016)

Key:
[1] = target: T1, intestinal Na-phosphate cotransporter (Rattus norvegicus, UniProt Q9JJ09); assay type: biochemical
T1 sequence (Q9JJ09 1-695): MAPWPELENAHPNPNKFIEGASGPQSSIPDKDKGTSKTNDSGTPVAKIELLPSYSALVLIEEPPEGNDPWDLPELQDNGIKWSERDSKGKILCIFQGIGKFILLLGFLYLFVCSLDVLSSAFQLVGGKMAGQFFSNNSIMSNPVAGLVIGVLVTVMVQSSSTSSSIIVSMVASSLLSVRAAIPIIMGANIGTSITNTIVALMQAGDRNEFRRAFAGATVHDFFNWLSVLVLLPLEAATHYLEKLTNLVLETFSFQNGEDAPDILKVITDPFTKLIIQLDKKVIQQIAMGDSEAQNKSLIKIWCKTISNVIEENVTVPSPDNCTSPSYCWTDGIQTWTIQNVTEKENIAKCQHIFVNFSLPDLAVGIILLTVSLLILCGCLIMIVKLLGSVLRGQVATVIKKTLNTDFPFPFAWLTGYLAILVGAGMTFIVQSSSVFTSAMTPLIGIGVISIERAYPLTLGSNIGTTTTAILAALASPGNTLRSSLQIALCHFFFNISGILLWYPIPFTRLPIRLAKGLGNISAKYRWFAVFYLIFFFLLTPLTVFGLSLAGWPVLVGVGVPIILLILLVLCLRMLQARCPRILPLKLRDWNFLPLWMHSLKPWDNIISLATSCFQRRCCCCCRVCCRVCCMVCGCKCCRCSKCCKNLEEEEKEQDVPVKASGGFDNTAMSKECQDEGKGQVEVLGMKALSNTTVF

[2] = system: intestinal BBMV phosphatases; assay type: biochemical
rat alkaline phosphatase = test: p-nitrophosphate hydrolysis by rat alkaline phosphatase; assay type: biochemical
Method: The results shown in Example A used a 3-second exposure of vesicles and substrates and a 5 minute exposure of vesicles to 2′-FPP. Prior exposure and degradation of 2′-PP in contrast to 2′-FPP could be contributing to the increased potency of 2′-FPP as compared to 2′-PP. To examine this possibility the effect of phosphophloretins on p-nitrophosphate hydrolysis by rat alkaline phosphatase and intestinal BBMV phosphatases was examined.

[3] = target: T2, intestinal brush border membrane Na/phosphate cotransporter, NaPi 2b (Rattus norvegicus, UniProt Q9JJ09); test: cell-based; assay type: cell-based
T2 construct: Rat duodenum/jejunum intestinal strips 1 cm square were incubated in DMEM; from tissue; host or cells: rat duodenum/jejunum intestinal strips
T2 sequence (Q9JJ09 1-695): T1 sequence (Q9JJ09 1-695)

Glucose uptake = assay type: cell-based, rat
[4] = rat, in vivo
[5] = rat, in vivo; remark: listed apart in the source
[6] = target: T1, intestinal Na-phosphate cotransporter; assay type: biochemical; set-up: other: intestinal BBMV; 3-second exposure of vesicles and substra; 2′-FPP vs 2′-PP; settings: read-out: IC50 for inhibition of Na-dependent phosphate uptake

O=C(CCc1ccc(O)cc1)c1c(O)cc(O)cc1OP(=O)(O)O
decrease of IC50 on addition of alkaline phosphatase inhibitors [1]: 34% | inhibition of intestinal BBMV phosphatase activity [2]: approximately 50% | inhibition of alkaline phosphatase activity, compared with 2′-FPP (rat alkaline phosphatase): better inhibitor | IC50 [3]: 15 µM | Maximum inhibition of total phosphate absorption [3]: 43±6% | inhibition of phosphate uptake [3]: 40% | inhibition of phosphate uptake 6 hours post-drug exposure [3]: less than 35% | Glucose uptake (Glucose uptake): unaffected | change in serum Ca2+ [4]: no change | decrease in serum phosphorus [4]: 30% | side effects [5]: no side effects | IC50 [6]: 0.046 µM
